ChEMBL document CHEMBL1127749 (J Med Chem, 1994)

What was measured:
[1] = target: Muscarinic acetylcholine receptor M2 (Mus musculus) (UniProt Q9ERZ4); test: In vivo determination of peripheral M2 receptor mediated salivation, cholinergic side effect
[2] = target: Muscarinic acetylcholine receptor M2 (Mus musculus) (UniProt Q9ERZ4); test: In vivo determination of peripheral M2 receptor mediated tremor, cholinergic side effect
[3] = target: Muscarinic acetylcholine receptor M2 (Mus musculus) (UniProt Q9ERZ4); test: In vivo determination of peripheral M2 receptor mediated hypothermia, cholinergic side effect
[4] = target: Muscarinic acetylcholine receptor M2 (Mus musculus) (UniProt Q9ERZ4); test: Compound was tested against peripheral M2 receptor mediated cholinergic side effect hypothermia; Very flat dose-response curve with about 50% of maximum response at 350 umol/kg

Which results are given for CCn1nnc(C2=CCCNC2)n1?
ED50 [1]: 41 µmol/kg; ED50 [2]: > 150 µmol/kg; ED50 [3]: 78 µmol/kg

Which ED50 [1] does the source give for CCCCn1ncc(C2=CCCN(C)C2)n1 here?
The ED50 was over 160 µmol/kg.

What about the ED50 [2] of the same compound?
Its ED50 is 72 µmol/kg.

And the ED50 [3]?
The ED50 was 60 µmol/kg.

What does the source list for CN1CCC=C(c2cnn(C)n2)C1?
ED50 [1]: 3.6 µmol/kg; ED50 [2]: > 110 µmol/kg; ED50 [3]: 5.3 µmol/kg

With C[N+](C)(C)CCOC(N)=O as the compound, how does the ED50 [1] read?
The ED50 was 120 µmol/kg.

What about the ED50 [3] of the same compound?
The ED50 was 90 µmol/kg.

What does the source list for CCN1C(=O)CC2(CCN(C)CC2)C1=O?
ED50 [1]: 2.5 µmol/kg; ED50 [2]: 38 µmol/kg; ED50 [3]: 8.6 µmol/kg

What does the source list for CCn1ncc(C2=CCCNC2)n1?
ED50 [1]: 12 µmol/kg; ED50 [2]: 60 µmol/kg; ED50 [3]: 19 µmol/kg

Which ED50 [4] does the source give for CCn1ncc(C2=CCCN(C)C2)n1 here?
The ED50 was 350 µmol/kg.

What about the ED50 [1] of the same compound?
The ED50 was 400 µmol/kg.

What about the ED50 [2] of the same compound?
The ED50 was 180 µmol/kg.
